pIC50: −log10 of the molar value.
What was measured:
HT-29 = experiment: Antiproliferative activity against human HT-29 cells after 72 hrs by MTS assay; type: functional, cell-based; conditions: HT-29, 72 h
MDA-MB-435 = experiment: Antiproliferative activity against human MDA-MB-435 cells after 72 hrs by MTS assay; type: functional, cell-based; conditions: MDA-MB-435, 72 h

## CCCCCCC[C@@H]1CC(=O)N[C@@H]([C@@H](C)CC)C(=O)N[C@H]([C@@H](O)C(C)C)C(=O)N[C@@H](CCO)C(=O)N[C@H]([C@@H](O)C(C)C)C(=O)N[C@@H](CCC(N)=O)C(=O)N(C)[C@@H]([C@@H](C)CC)C(=O)N[C@H](CO)C(=O)N[C@@H]([C@@H](C)O)C(=O)N2CCC[C@H]2C(=O)N[C@H](Cc2ccc(O)cc2)C(=O)N[C@@H]([C@@H](C)O)C(=O)N1
HT-29
  pIC50: 5.82
MDA-MB-435
  pIC50: 6.10

Source: ChEMBL document CHEMBL3352391, “Trichormamides A and B with Antiproliferative Activity from the Cultured Freshwater Cyanobacterium Trichormus sp. UIC 10339” (J Nat Prod, 2014)
